Laboratory results as given in paper PMC12564223, “UHPLC-QTOF-ESI-MS/MS, SNAP-MS Identification, In Silico Prediction of Pharmacokinetic Properties of Constituents from the Stem Bark of Holarrhena floribunda (G. Don) T. Durand and Schinz (Apocynaceae)” (Biomolecules, 2025).
Read-outs that look alike come from different tables or passages of the source.

What was measured:
[1] = system: P. falciparum 3D7 (Chloroquine-sensitive); experiment: Plasmodium falciparum growth inhibition assay (SYBR green I), 3D7 strain; format: cell-based; conditions: read-out: IC50/Pf3D7
[2] = system: P. falciparum Dd2 (multidrug-resistant); experiment: Plasmodium falciparum growth inhibition assay (SYBR green I), Dd2 strain; format: cell-based; conditions: for IC50: Plasmodium falciparum, read-out: IC50/PfDd2
[3] = system: Plasmodium falciparum FCB1 (chloroquine-resistant); design: method as in PMID 15863333; conditions: Pf FCB1; ref [17]; cited from earlier work
[4] = system: human cervix carcinoma KB-3-1 cancer cell lines; experiment: Cytotoxicity on KB-3-1 cells; conditions: called IC50 in the text
[5] = system: human cervix carcinoma KB-3-1 cancer cell lines
[6] = system: Plasmodium falciparum K1 (multi-resistant); design: method as in PMID 29172699; conditions: Pf K1; ref [18]; cited from earlier work
[7] = 3D7, compounds and reference drugs, 72 h incubation
[8] = DD2, compounds and reference drugs, 72 h incubation

Compound | IC50 ([1]; 3D7, 72 h) | IC50 ([2]; DD2, 72 h) | RI: [IC50PfDd2/IC50Pf3D7] ([2]; Resistance Index) | IC50 [6] | other results
CCOC(=O)c1c(C)cc(O)cc1O [compound 26, ethylorsalinate] | – | – | – | – | IC50 [1, 7]: > 50 µM; IC50 [2, 8]: > 50 µM
C[C@H]1[C@H]2CC[C@H]3[C@@H]4CC=C5C[C@@H](N(C)C)CC[C@]5(C)[C@H]4CC[C@]23CN1C [compound 5, Conessine] | 26 ± 0.43 µM | 28.5 ± 0.704 µM | 1.09 | – | IC50 [3]: 1.04 µM
Cryptophycin | – | – | – | – | CC50 on KB-3-1 [4]: 1.3 × 10^−5 μM µM; CC50 on KB-3-1 ([4]; listed as cryptophycin): 1.3e-05 µM
COc1cc(C)c2c(=O)c3c(O)cc(OC)cc3oc2c1 [compound 27, lichexanthone] | 33.4 ± 1.2 µM | 36.5 ± 1.39 µM | 1.09 | – | –
CC(C)=CCC(=O)O[C@@H]1C[C@H]2[C@@H](CC=C3C[C@@H](N(C)C)CC[C@@]32C)[C@@H]2CC[C@@H]3[C@H](C)N(C)C[C@]312 [compound 10, Holarrhetine] | – | – | – | – | IC50 [3]: 1.13 ± 0.32 µM
CC(=O)C1CCC2C3CC=C4CC(N)CCC4(C)C3CCC12C (centres unmarked) [compound 14, Holaphyllamine] | 49.5 ± 4.83 µM | 55.8 ± 9.75 µM | 1.12 | – | CC50 on KB-3-1 [5]: 9.8 µM
CCN(CC)CCCC(C)Nc1ccnc2cc(Cl)ccc12 (centres unmarked) [Chloroquine, reference compound] | 0.045 ± 0.003 µM | 0.73 ± 0.09 µM | – | – | RI: [IC50PfDd2/IC50Pf3D7] [2]: 16.22
CNC1CCC2(C)C(=CCC3C2CCC2(C)C(C(C)=O)CCC32)C1 (centres unmarked) [compound 16, N-methylholaphyllamine] | – | – | – | 10.6 µM | –
C[C@@H]1CC[C@H]2[C@@H](C)C(=O)O[C@@H]3O[C@@]4(C)CC[C@@H]1[C@]32OO4 [Artemisinin, reference compound] | – | – | 0.71 | – | IC50 [1, 7]: 0.035 µM; IC50 [2, 8]: 0.025 ± 0.006 µM
CNC1CCC2(C)C(=CCC3C2CCC24CNC(C)C2CCC34)C1 (centres unmarked) [compound 4, Conimin/conamine] | – | – | – | 8 µM | –
CC1N=CC23CCC4C(CC=C5CC(N)CCC54C)C2CCC13 (centres unmarked) [compound 3, Irheline] | – | – | – | 1.2 µM | IC50 [1, 7]: > 50 µM; IC50 [2, 8]: > 50 µM
CC(O)C1CCC2C3CC=C4CC(N)CCC4(C)C3CCC12C (centres unmarked) [compound 15, Holaphyllaminol] | – | – | – | 11.7 µM | –
CNC1CCC2(C)C(=CCC3C2CC(OC(=O)CC=C(C)C)C24CN(C)C(C)C2CCC34)C1 (centres unmarked) [compound 11, Holarrhesine] | – | – | – | – | IC50 [3]: 0.97 ± 0.11 µM
